Test system: 439559-082-T-J2-PDC spheroid viability
Assay: Anticancer human tumor 439559-082-T-J2-PDC patient-derived colon adenocarcinoma cell line growth inhibition [POLQ]
Details: spheroids with HUVEC and MSC; for IC50: curve of first compound; for viability, T/C: stronger effect = lower value
Procedure, shortened: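 Growth inhibition in 3D: complex spheroids (tumor PDC, HUVEC, MSC) treated with POLQ inhibitor combinations; where Cmax unknown, highest tested concentration 10 microM, except SN-38 at 1 microM.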

[1] = second compound 0.0316 µM, first compound 0.0316 µM
[2] = second compound 0.0316 µM, first compound 0.1 µM
[3] = second compound 0.0316 µM, first compound 0.316 µM
[4] = second compound 0.0316 µM, first compound 1 µM
[5] = second compound 0.0316 µM, first compound 3.16 µM
[6] = second compound 0.0316 µM, first compound 10 µM
[7] = second compound 0.1 µM, first compound 0.0316 µM
[8] = second compound 0.1 µM, first compound 0.1 µM
[9] = second compound 0.1 µM, first compound 0.316 µM
[10] = second compound 0.1 µM, first compound 1 µM
[11] = second compound 0.1 µM, first compound 3.16 µM
[12] = second compound 0.1 µM, first compound 10 µM
[13] = second compound 0.316 µM, first compound 0.0316 µM
[14] = second compound 0.316 µM, first compound 0.1 µM
[15] = second compound 0.316 µM, first compound 0.316 µM
[16] = second compound 0.316 µM, first compound 1 µM
[17] = second compound 0.316 µM, first compound 3.16 µM
[18] = second compound 0.316 µM, first compound 10 µM
[19] = second compound 1 µM, first compound 0.0316 µM
[20] = second compound 1 µM, first compound 0.1 µM
[21] = second compound 1 µM, first compound 0.316 µM
[22] = second compound 1 µM, first compound 1 µM
[23] = second compound 1 µM, first compound 3.16 µM
[24] = second compound 1 µM, first compound 10 µM
[25] = second compound 3.16 µM, first compound 0.0316 µM
[26] = second compound 3.16 µM, first compound 0.1 µM
[27] = second compound 3.16 µM, first compound 0.316 µM
[28] = second compound 3.16 µM, first compound 1 µM
[29] = second compound 3.16 µM, first compound 3.16 µM
[30] = second compound 3.16 µM, first compound 10 µM
[31] = second compound 10 µM, first compound 0.0316 µM
[32] = second compound 10 µM, first compound 0.1 µM
[33] = second compound 10 µM, first compound 0.316 µM
[34] = second compound 10 µM, first compound 1 µM
[35] = second compound 10 µM, first compound 3.16 µM
[36] = second compound 10 µM, first compound 10 µM
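Note: spheroids exposed to compounds for seven days before readout.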
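Throughout, for viability, T/C: 100% = DMSO vehicle control viability.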

CC1COCCN1c1cc(C2(O)CC3CCC(C2)O3)c2cnn(-c3ccn[nH]3)c2n1 (stereo not drawn) + COC1C(OC(N)=O)C(O)C(Oc2ccc3c(O)c(NC(=O)c4ccc(O)c(CC=C(C)C)c4)c(=O)oc3c2C)OC1(C)C
IC50 (second compound 0.0316 µM): 2.58 µM | IC50 (second compound 0.1 µM): 2.62 µM | IC50 (second compound 0.316 µM): 2.08 µM | IC50 (second compound 1 µM): 1.92 µM | IC50 (second compound 3.16 µM): 1.84 µM | IC50 (second compound 10 µM): 1.25 µM | viability, T/C [1]: 97% | viability, T/C [2]: 89.6% | viability, T/C [3]: 67.5% | viability, T/C [4]: 58.4% | viability, T/C [5]: 48.7% | viability, T/C [6]: 45.1% | viability, T/C [7]: 95.1% | viability, T/C [8]: 86.9% | viability, T/C [9]: 68.4% | viability, T/C [10]: 58.3% | viability, T/C [11]: 46.9% | viability, T/C [12]: 46.8% | viability, T/C [13]: 99% | viability, T/C [14]: 83.1% | viability, T/C [15]: 69.9% | viability, T/C [16]: 56.8% | viability, T/C [17]: 42.2% | viability, T/C [18]: 46.3% | viability, T/C [19]: 93.6% | viability, T/C [20]: 89.5% | viability, T/C [21]: 66.5% | viability, T/C [22]: 56.1% | viability, T/C [23]: 48.2% | viability, T/C [24]: 42.4% | viability, T/C [25]: 89.2% | viability, T/C [26]: 85% | viability, T/C [27]: 65.3% | viability, T/C [28]: 54.3% | viability, T/C [29]: 47.9% | viability, T/C [30]: 45.5% | viability, T/C [31]: 89.1% | viability, T/C [32]: 87.4% | viability, T/C [33]: 66.4% | viability, T/C [34]: 52.5% | viability, T/C [35]: 46.7% | viability, T/C [36]: 44.8%

COc1ccc([C@@H](O)c2cc(-c3ncnc4cc(N5CCOCC5)ccc34)c(F)cc2Cl)nn1 + Cc1cccc(N(C)C(=O)C2C(O)CCN2c2nc(C)cc(C(F)(F)F)c2C#N)c1
IC50 (second compound 0.0316 µM): > 10 µM | IC50 (second compound 0.1 µM): > 10 µM | IC50 (second compound 0.316 µM): > 10 µM | IC50 (second compound 1 µM): > 10 µM | IC50 (second compound 3.16 µM): > 10 µM | IC50 (second compound 10 µM): > 10 µM | viability, T/C [1]: 95.2% | viability, T/C [2]: 95.5% | viability, T/C [3]: 95.9% | viability, T/C [4]: 94.9% | viability, T/C [5]: 93.4% | viability, T/C [6]: 81.5% | viability, T/C [7]: 101% | viability, T/C [8]: 99.3% | viability, T/C [9]: 94.7% | viability, T/C [10]: 92.9% | viability, T/C [11]: 92% | viability, T/C [12]: 80.1% | viability, T/C [13]: 105% | viability, T/C [14]: 111% | viability, T/C [15]: 92.1% | viability, T/C [16]: 99.3% | viability, T/C [17]: 87.4% | viability, T/C [18]: 80.9% | viability, T/C [19]: 108% | viability, T/C [20]: 101% | viability, T/C [21]: 91.6% | viability, T/C [22]: 93.4% | viability, T/C [23]: 85.5% | viability, T/C [24]: 83% | viability, T/C [25]: 95.1% | viability, T/C [26]: 92.3% | viability, T/C [27]: 97.4% | viability, T/C [28]: 95.6% | viability, T/C [29]: 78.1% | viability, T/C [30]: 77.1% | viability, T/C [31]: 94.8% | viability, T/C [32]: 94.7% | viability, T/C [33]: 93% | viability, T/C [34]: 83.5% | viability, T/C [35]: 83.6% | viability, T/C [36]: 78.3%

O=C(c1cc(Cc2n[nH]c(=O)c3ccccc23)ccc1F)N1CCN(C(=O)C2CC2)CC1 + Nc1ccc(C#CCN(C(=O)Cc2ncc(C(F)(F)F)cc2C(F)(F)F)c2ccc(F)cc2)nn1
IC50 (second compound 0.0316 µM): > 10 µM | IC50 (second compound 0.1 µM): > 10 µM | IC50 (second compound 0.316 µM): > 10 µM | IC50 (second compound 1 µM): > 10 µM | IC50 (second compound 3.16 µM): > 10 µM | IC50 (second compound 10 µM): > 10 µM | viability, T/C [1]: 93.4% | viability, T/C [2]: 97.3% | viability, T/C [3]: 93.4% | viability, T/C [4]: 101% | viability, T/C [5]: 94.3% | viability, T/C [6]: 98% | viability, T/C [7]: 93.1% | viability, T/C [8]: 106% | viability, T/C [9]: 89.1% | viability, T/C [10]: 117% | viability, T/C [11]: 92.8% | viability, T/C [12]: 99.8% | viability, T/C [13]: 91.5% | viability, T/C [14]: 105% | viability, T/C [15]: 86.8% | viability, T/C [16]: 96.1% | viability, T/C [17]: 106% | viability, T/C [18]: 96.9% | viability, T/C [19]: 104% | viability, T/C [20]: 107% | viability, T/C [21]: 94.1% | viability, T/C [22]: 108% | viability, T/C [23]: 84.7% | viability, T/C [24]: 104% | viability, T/C [25]: 88% | viability, T/C [26]: 116% | viability, T/C [27]: 98.3% | viability, T/C [28]: 106% | viability, T/C [29]: 103% | viability, T/C [30]: 98.3% | viability, T/C [31]: 92.8% | viability, T/C [32]: 87.9% | viability, T/C [33]: 95.5% | viability, T/C [34]: 90.7% | viability, T/C [35]: 98.2% | viability, T/C [36]: 103%

CCc1cc2c(N3CCc4c(cc(Cn5ccnc5)cc4-c4cn(C)nc4C(F)(F)F)C3=O)cc(C)nc2c(OC)n1 + Cc1cccc(N(C)C(=O)C2C(O)CCN2c2nc(C)cc(C(F)(F)F)c2C#N)c1
IC50 (second compound 0.0316 µM): > 10 µM | IC50 (second compound 0.1 µM): > 10 µM | IC50 (second compound 0.316 µM): > 10 µM | IC50 (second compound 1 µM): > 10 µM | IC50 (second compound 3.16 µM): > 10 µM | IC50 (second compound 10 µM): > 10 µM | viability, T/C [1]: 105% | viability, T/C [2]: 101% | viability, T/C [3]: 101% | viability, T/C [4]: 98.3% | viability, T/C [5]: 95.1% | viability, T/C [6]: 97.3% | viability, T/C [7]: 101% | viability, T/C [8]: 96.9% | viability, T/C [9]: 90.2% | viability, T/C [10]: 77.2% | viability, T/C [11]: 111% | viability, T/C [12]: 105% | viability, T/C [13]: 94.7% | viability, T/C [14]: 95.3% | viability, T/C [15]: 105% | viability, T/C [16]: 81% | viability, T/C [17]: 90.6% | viability, T/C [18]: 89.8% | viability, T/C [19]: 96.6% | viability, T/C [20]: 104% | viability, T/C [21]: 95.8% | viability, T/C [22]: 95.7% | viability, T/C [23]: 99.6% | viability, T/C [24]: 94.9% | viability, T/C [25]: 111% | viability, T/C [26]: 93.6% | viability, T/C [27]: 87.6% | viability, T/C [28]: 92.2% | viability, T/C [29]: 107% | viability, T/C [30]: 94% | viability, T/C [31]: 94.8% | viability, T/C [32]: 111% | viability, T/C [33]: 80.7% | viability, T/C [34]: 91.5% | viability, T/C [35]: 98.1% | viability, T/C [36]: 86%

— PubChem BioAssay AID1963841 (Molecular Pharmacology Branch, DTP, NCI, 2024)
